Experimental data from ChEMBL document CHEMBL3044624, “Cycloate, an inhibitor of fatty acid elongase, modulates the metabolism of very-long-side-chain alkylresorcinols in rye seedlings” (Pest Manag Sci, 2009).

Columns and labels:
Secale cereale [1] = test: Toxicity against green Secale cereale (rye) seedlings assessed as fresh biomass of seedling grown at 15 +/-2 degC at 46 uM measured at 5 days after compound-treated seed germination (reference value: 10.70 +/-0.28 g); assay type: organism-based; conditions: in vivo, 120 h
Secale cereale [2] = test: Change in alkylresorcinol homologue composition in dry shoots of green Secale cereale (rye) seedlings grown from compound-treated seeds at 22 +/-2 degC assessed as C17:1 content at 46 uM by GC/EI-MS analysis (reference value: 0.21 mg/kg dry weight); assay type: functional
Secale cereale [3] = test: Change in alkylresorcinol homologue composition in dry shoots of green Secale cereale (rye) seedlings grown from compound-treated seeds at 29 +/-2 degC assessed as C17:1 content at 46 uM by GC/EI-MS analysis (reference value: 0.08 mg/kg dry weight); assay type: functional
Secale cereale [4] = test: Change in alkylresorcinol content in dry shoots of green Secale cereale (rye) seedlings grown from compound-treated seeds at 29 +/-2 degC at 46 uM by thin layer chromatography (reference value: 1.94 +/-0.02 mg/kg dry weight); assay type: functional
Secale cereale [5] = test: Toxicity against etiolated Secale cereale (rye) seedlings assessed as dry biomass of seedling grown at 22 +/-2 degC at 46 uM measured at 5 days after compound-treated seed germination (reference value: 2.52 +/-0.05 g); assay type: organism-based; conditions: in vivo, 120 h
Secale cereale [6] = test: Toxicity against etiolated Secale cereale (rye) seedlings assessed as dry biomass of seedling grown at 29 +/-2 degC at 46 uM measured at 5 days after compound-treated seed germination (reference value: 2.13 +/-0.03 g); assay type: organism-based; conditions: in vivo, 120 h
Secale cereale [7] = test: Toxicity against etiolated Secale cereale (rye) seedlings assessed as fresh biomass of seedling grown at 15 +/-2 degC at 46 uM measured at 5 days after compound-treated seed germination (reference value: 7.63 +/-0.12 g); assay type: organism-based; conditions: in vivo, 120 h
Secale cereale [8] = test: Toxicity against etiolated Secale cereale (rye) seedlings assessed as fresh biomass of seedling grown at 22 +/-2 degC at 46 uM measured at 5 days after compound-treated seed germination (reference value: 21.43 +/-0.35 g); assay type: organism-based; conditions: in vivo, 120 h
Secale cereale [9] = test: Toxicity against etiolated Secale cereale (rye) seedlings assessed as fresh biomass of seedling grown at 29 +/-2 degC at 46 uM measured at 5 days after compound-treated seed germination (reference value: 16.03 +/-0.67 g); assay type: organism-based; conditions: in vivo, 120 h
Secale cereale [10] = test: Change in alkylresorcinol homologue composition in dry shoots of etiolated Secale cereale (rye) seedlings grown from compound-treated seeds at 15 +/-2 degC assessed as C17:1 content at 46 uM by GC/EI-MS analysis (reference value: 0.51 mg/kg dry weight); assay type: functional
Secale cereale [11] = test: Change in alkylresorcinol homologue composition in dry shoots of etiolated Secale cereale (rye) seedlings grown from compound-treated seeds at 22 +/-2 degC assessed as C17:1 content at 46 uM by GC/EI-MS analysis (reference value: 0.11 mg/kg dry weight); assay type: functional
Secale cereale [12] = test: Change in alkylresorcinol homologue composition in dry shoots of etiolated Secale cereale (rye) seedlings grown from compound-treated seeds at 29 +/-2 degC assessed as C17:1 content at 46 uM by GC/EI-MS analysis (reference value: 0.05 mg/kg dry weight); assay type: functional
Secale cereale [13] = test: Change in alkylresorcinol homologue composition in dry shoots of etiolated Secale cereale (rye) seedlings grown from compound-treated seeds at 29 +/-2 degC assessed as C15:0 content at 46 uM by GC/EI-MS analysis (reference value: 0.09 mg/kg dry weight); assay type: functional
Secale cereale [14] = test: Change in alkylresorcinol homologue composition in dry shoots of etiolated Secale cereale (rye) seedlings grown from compound-treated seeds at 15 +/-2 degC assessed as C23:0 content at 46 uM by GC/EI-MS analysis (reference value: 0.33 mg/kg dry weight); assay type: functional
Secale cereale [15] = test: Change in alkylresorcinol homologue composition in dry shoots of etiolated Secale cereale (rye) seedlings grown from compound-treated seeds at 22 +/-2 degC assessed as C23:0 content at 46 uM by GC/EI-MS analysis (reference value: 0.37 mg/kg dry weight); assay type: functional
Secale cereale [16] = test: Change in alkylresorcinol homologue composition in dry shoots of etiolated Secale cereale (rye) seedlings grown from compound-treated seeds at 29 +/-2 degC assessed as C23:1 content at 46 uM by GC/EI-MS analysis; assay type: functional
Secale cereale [17] = test: Change in alkylresorcinol homologue composition in dry shoots of etiolated Secale cereale (rye) seedlings grown from compound-treated seeds at 15 +/-2 degC assessed as C21:0 content at 46 uM by GC/EI-MS analysis (reference value: 0.78 mg/kg dry weight); assay type: functional
Secale cereale [18] = test: Change in alkylresorcinol homologue composition in dry shoots of etiolated Secale cereale (rye) seedlings grown from compound-treated seeds at 29 +/-2 degC assessed as C21:1 content at 46 uM by GC/EI-MS analysis (reference value: 0.04 mg/kg dry weight); assay type: functional
Secale cereale [19] = test: Change in alkylresorcinol homologue composition in dry shoots of etiolated Secale cereale (rye) seedlings grown from compound-treated seeds at 15 +/-2 degC assessed as C19:0 content at 46 uM by GC/EI-MS analysis (reference value: 1.77 mg/kg dry weight); assay type: functional
Secale cereale [20] = test: Change in alkylresorcinol homologue composition in dry shoots of etiolated Secale cereale (rye) seedlings grown from compound-treated seeds at 22 +/-2 degC assessed as C19:1 content at 46 uM by GC/EI-MS analysis (reference value: 0.24 mg/kg dry weight); assay type: functional
Secale cereale [21] = test: Change in alkylresorcinol homologue composition in dry shoots of etiolated Secale cereale (rye) seedlings grown from compound-treated seeds at 29 +/-2 degC assessed as C19:1 content at 46 uM by GC/EI-MS analysis (Rvb =0.09 mg/kg dry weight); assay type: functional
Secale cereale [22] = test: Change in alkylresorcinol homologue composition in dry shoots of green Secale cereale (rye) seedlings grown from compound-treated seeds at 22 +/-2 degC assessed as C25:0 content at 46 uM by GC/EI-MS analysis (reference value: 0.11 mg/kg dry weight); assay type: functional
Secale cereale [23] = test: Change in alkylresorcinol homologue composition in dry shoots of green Secale cereale (rye) seedlings grown from compound-treated seeds at 29 +/-2 degC assessed as C25:0 content at 46 uM by GC/EI-MS analysis (reference value: 0.03 mg/kg dry weight); assay type: functional
Secale cereale [24] = test: Change in alkylresorcinol homologue composition in dry shoots of green Secale cereale (rye) seedlings grown from compound-treated seeds at 15 +/-2 degC assessed as C23:0 content at 46 uM by GC/EI-MS analysis (reference value: 0.59 mg/kg dry weight); assay type: functional
Secale cereale [25] = test: Change in alkylresorcinol homologue composition in dry shoots of green Secale cereale (rye) seedlings grown from compound-treated seeds at 22 +/-2 degC assessed as C21:1 content at 46 uM by GC/EI-MS analysis (reference value: 0.09 mg/kg dry weight); assay type: functional
Secale cereale [26] = test: Change in alkylresorcinol homologue composition in dry shoots of green Secale cereale (rye) seedlings grown from compound-treated seeds at 29 +/-2 degC assessed as C19:0 content at 46 uM by GC/EI-MS analysis (reference value: 0.48 mg/kg dry weight); assay type: functional

For `CCSC(=O)N(CC)C1CCCCC1` [CYCLOATE], the Activity (Secale cereale [1]) was 4.73 g, the Activity (Secale cereale [2]) was 0.13 mg/kg and the Activity (Secale cereale [3]) was 0.75 mg/kg. The Activity (Secale cereale [4]) was 13.96 mg/kg, the Activity (Secale cereale [5]) was 1.5 g and the Activity (Secale cereale [6]) was 2.32 g. It also gave an Activity (Secale cereale [7]) of 4.41 g, an Activity (Secale cereale [8]) of 6.92 g and an Activity (Secale cereale [9]) of 21 g. It also gave an Activity (Secale cereale [10]) of 1.25 mg/kg, an Activity (Secale cereale [11]) of 0.11 mg/kg and an Activity (Secale cereale [12]) of 0.98 mg/kg. It also gave an Activity (Secale cereale [13]) of 0.72 mg/kg, an Activity (Secale cereale [14]) of 0.17 mg/kg and an Activity (Secale cereale [15]) of 0.3 mg/kg. It also gave an Activity (Secale cereale [16]) of 0.07 mg/kg, an Activity (Secale cereale [17]) of 0.69 mg/kg and an Activity (Secale cereale [18]) of 0.33 mg/kg. It also gave an Activity (Secale cereale [19]) of 2.64 mg/kg, an Activity (Secale cereale [20]) of 0.21 mg/kg and an Activity (Secale cereale [21]) of 1.2 mg/kg. The Activity (Secale cereale [22]) was 0.07 mg/kg, the Activity (Secale cereale [23]) was 0.2 mg/kg and the Activity (Secale cereale [24]) was 0.17 mg/kg. The Activity (Secale cereale [25]) was 0.05 mg/kg and the Activity (Secale cereale [26]) was 3.88 mg/kg.
